In patent US11414431B2, “Substituted pyrazolo[1,5-a]pyrimidines as TYK2 inhibitors” (Nimbus Lakshmi, Inc., priority 2018, dated 2022):

Each compound was assayed on IL-12 induced STAT4 phosphorlyation mediated by TYK2/JAK2 (assay: IL-12 Induced pSTAT4 in Human PBMC). Details: 1.7 ng/mL IL-12 for 30 minutes.
Type: cell-based
Experimental: Human PBMC were isolated from buffy coat and are stored frozen for assays as needed. […] 15 μL of compound or DMSO was added to the well at the desired concentrations and incubated at 1 hr at 37° C. 15 μL of stimulus (final concentration of 1.7 ng/mL IL-12) was added for 30 minutes prior to pSTAT4 and total STAT4 analysis using cell lysates prepared and analyzed by MSD reagents as per manufacturer protocol. The final DMSO concentration of compound in the assay was 0.1%.
The IL-12 induced pSTAT4 assay evaluates the inhibition of IL-12 induced STAT4 phosphorlyation mediated by TYK2/JAK2 (heterpdimeric complex).

IC50 [µM]	SMILES
< 0.1	CNc1cc(-c2cnc3n([C@H]4CN(C)C[C@@H]4OC)cccc2-3)nc2c(C(=O)N[C@H]3CC[C@@H]3OC)cnn12 [Compound I-947]
< 0.1	CNc1cc(-c2cn([C@H]3CCOC3)c3ncccc23)nc2c(C(=O)NC3CC[C@@H]3OC)cnn12 (some centres unmarked) [Compound I-612]
< 0.1	CNc1cc(-c2cn([C@H]3C[C@@H](COC)C3)c3ncccc23)nc2c(C(=O)NC3CC[C@H]3O)cnn12 (some centres unmarked) [Compound I-912]
< 0.1	CNc1cc(Nc2cccn([C@@H]3CCOC[C@@H]3OC)c2=O)nc2c(C(=O)N[C@@H]3CC[C@@H]3F)cnn12 [Compound I-235]
< 0.1	CNc1cc(Nc2cccn([C@H]3[C@@H]4COC[C@@H]43)c2=O)nc2c(C(=O)N[C@@H]3CC[C@H]3OC)cnn12 [Compound I-262]
< 0.1	O=C(N[C@H]1CCC1(F)F)c1cnn2c3c(c(-c4cn([C@H]5C[C@H](O)C5)c5ncccc45)nc12)OCCN3 [Compound I-776]
< 0.1	CNc1cc(-c2cn([C@@H]3CCN(C)C3)c3ncccc23)nc2c(C(=O)N[C@H]3CC[C@@H]3OC)cnn12 [Compound I-616]
< 0.1	CNc1cc(-c2cnc3n([C@@H]4COC[C@H]4O)cccc2-3)nc2c(C(=O)NC3CCC3(F)F)cnn12 (some centres unmarked) [Compound I-901]
< 0.1	CNc1cc(Nc2cccn(C3CCOCC3)c2=O)nc2c(C(=O)N[C@@H]3CC[C@@H]3F)cnn12 [Compound I-193]
< 0.1	CNc1cc(Nc2cccn([C@H]3C[C@H](F)C3)c2=O)nc2c(C(=O)N[C@@H]3CC[C@H]3OC)cnn12 [Compound I-57, 5-((1-((1r,3R)-3-Fluorocyclobutyl)-2-oxo-1,2-dihydropyridin-3-yl)amino)-N-((1R,2R)-2-methoxycyclobutyl)-7-(methylamino)pyrazolo[1,5-a]pyrimidine-3-carboxamide]
0.1 to 0.5	CNc1cc(-c2cn([C@H]3CCOC[C@@H]3F)c3ncccc23)nc2c(C(=O)N[C@H]3CC[C@H]3O)cnn12 [Compound I-916]
< 0.1	CNc1cc(-c2cn([C@@H]3CCOC[C@@H]3OC)c3ncccc23)nc2c(C(=O)N[C@H]3CCC3(F)F)cnn12 [Compound I-703]
< 0.1	CNc1cc(Nc2cccn([C@H]3CC[C@H]3O)c2=O)nc2c(C(=O)NC3CCC3(F)F)cnn12 (some centres unmarked) [Compound I-286]
< 0.1	CNc1cc(-c2cnc3n([C@H]4COC[C@@H]4OC)cccc2-3)nc2c(C(=O)N[C@@H]3CC[C@H]3OC)cnn12 [Compound I-881]
< 0.1	CNc1cc(-c2cn(CC(=O)N3CCCC3)c3ncccc23)nc2c(C(=O)N[C@H]3CC[C@@H]3OC)cnn12 [Compound I-965]
< 0.1	CNc1cc(Nc2cccn([C@@H]3CCC[C@H](C#N)C3)c2=O)nc2c(C(=O)N[C@@H]3CC[C@H]3OC)cnn12 [Compound I-260]
< 0.1	CNc1cc(-c2cnc3n([C@@H]4CCOC4)cccc2-3)nc2c(C(=O)N[C@H]3CC[C@@H]3OC)cnn12 [Compound I-1004]
< 0.1	CNc1ccc(-c2cc(NC)n3ncc(C(=O)NC4CC[C@H]4F)c3n2)n2ccnc12 (some centres unmarked) [Compound I-483]
< 0.1	CNc1cc(Nc2cccn([C@H]3CCCOC3)c2=O)nc2c(C(=O)NC3CCC3(F)F)cnn12 (some centres unmarked) [Compound I-312]
< 0.1	CNc1cc(-c2cn([C@H]3COC[C@@H]3OC)c3ncccc23)nc2c(C(=O)NC3CC[C@H]3F)cnn12 (some centres unmarked) [Compound I-528]
< 0.1	CNc1cc(-c2cnc3n([C@@H]4CN(C)C[C@H]4OC)cccc2-3)nc2c(C(=O)N[C@H]3CC[C@@H]3OC)cnn12 [Compound I-944]
< 0.1	CNc1cc(-c2cnc3n([C@H]4COC[C@@H]4O)cccc2-3)nc2c(C(=O)NC3CCC3(F)F)cnn12 (some centres unmarked) [Compound I-898]
< 0.1	CNc1cc(Nc2cccn([C@H]3CCC[C@H]3O)c2=O)nc2c(C(=O)NC3CC[C@]3(C)OC)cnn12 (some centres unmarked) [Compound I-390]
< 0.1	CNc1cc(Nc2cccn([C@H]3C[C@@H]3F)c2=O)nc2c(C(=O)N[C@@H]3C[C@H]3OC)cnn12 [Compound I-133]
< 0.1	CNc1cc(Nc2cccn([C@H]3CCC[C@@H](C#N)C3)c2=O)nc2c(C(=O)NC3CCC3(F)F)cnn12 (some centres unmarked) [Compound I-330]
< 0.1	CNc1cc(-c2cn([C@@H]3COC[C@@H]3F)c3ncccc23)nc2c(C(=O)N[C@H]3CC[C@@H]3OC)cnn12 [Compound I-622]
< 0.1	CNc1cc(Nc2cccn(C3CCOCC3)c2=O)nc2c(C(=O)NC3CC[C@]3(C)O)cnn12 (some centres unmarked) [Compound I-348]

IC50 [µM]	SMILES
< 0.1	CNc1cc(Nc2cccn([C@H]3CC[C@H]3O)c2=O)nc2c(C(=O)N[C@@H]3CC[C@H]3F)cnn12 [Compound I-169]
< 0.1	CNc1cc(-c2cn([C@@H]3CCOC[C@@H]3OC)c3ncccc23)nc2c(C(=O)NC3CCC3(F)F)cnn12 (some centres unmarked) [Compound I-702]
< 0.1	CNc1cc(Nc2cccn([C@H]3C[C@@H](OC)C3)c2=O)nc2c(C(=O)NC3CC[C@@H]3OC)cnn12 (some centres unmarked) [Compound I-780]
< 0.1	CNc1cc(-c2cn([C@H]3CCOC3)c3ncccc23)nc2c(C(=O)N[C@H]3CC[C@@H]3OC)cnn12 [Compound I-613]
< 0.1	CNc1cc(Nc2cccn(C3CC(F)(F)C3)c2=O)nc2c(C(=O)N[C@@H]3C[C@H]3OC)cnn12 [Compound I-139]
< 0.1	CNc1cc(Nc2cccn([C@@H]3CCC[C@@H]3O)c2=O)nc2c(C(=O)NC3CCC3(F)F)cnn12 (some centres unmarked) [Compound I-303]
< 0.1	CNc1cc(-c2cn([C@H]3[C@@H]4COC[C@@H]43)c3ncccc23)nc2c(C(=O)N[C@H]3CC[C@@H]3O)cnn12 [Compound I-915]
< 0.1	CNc1cc(Nc2cccn([C@H]3C[C@@H]3F)c2=O)nc2c(C(=O)N[C@@H]3CCC3(F)F)cnn12 [Compound I-279]
< 0.1	CNc1cc(-c2cn([C@@H]3COC[C@H]3OC)c3ccccc23)nc2c(C(=O)NC3CC[C@@H]3OC)cnn12 (some centres unmarked) [Compound I-744]
0.1 to 0.5	CNc1cc(-c2cn([C@H]3CC(=O)N(C)C3)c3ncccc23)nc2c(C(=O)NC3CC[C@@H]3OC)cnn12 (some centres unmarked) [Compound I-1017]
< 0.1	CNc1cc(Nc2cccn(C3CCOCC3)c2=O)nc2c(C(=O)N[C@H]3CC[C@]3(C)OC)cnn12 [Compound I-407]
< 0.1	CNc1cc(Nc2cccn([C@@H]3C[C@H]3F)c2=O)nc2c(C(=O)NC3CCC3(F)F)cnn12 (some centres unmarked) [Compound I-274]
< 0.1	CNc1cc(Nc2cccn([C@H]3[C@@H]4COC[C@@H]43)c2=O)nc2c(C(=O)N[C@@H]3CC[C@@]3(C)OC)cnn12 [Compound I-410]
< 0.1	CNc1cc(Nc2cccn([C@H]3CCC[C@H](OC)C3)c2=O)nc2c(C(=O)NC3CC[C@@H]3F)cnn12 (some centres unmarked) [Compound I-230]
< 0.1	CNc1cc(Nc2cccn([C@H]3CC[C@H](OC)CC3)c2=O)nc2c(C(=O)N[C@@H]3CC[C@@]3(C)OC)cnn12 [Compound I-428]
< 0.1	CNc1cc(-c2cn([C@@H]3CC3(F)F)c3ncccc23)nc2c(C(=O)N[C@H]3CC[C@H]3O)cnn12 [Compound I-549]
< 0.1	CNc1cc(-c2cn([C@@H]3CN(C)C[C@H]3OC)c3ncccc23)nc2c(C(=O)N[C@H]3CC[C@@H]3OC)cnn12 [Compound I-646]
0.1 to 0.5	CNc1cc(-c2cn([C@H]3CC(=O)N(C4CCOCC4)C3)c3ncccc23)nc2c(C(=O)N[C@H]3CC[C@@H]3OC)cnn12 [Compound I-1030]
< 0.1	CNc1cc(Nc2cccn([C@@H]3CCCC[C@@H]3O)c2=O)nc2c(C(=O)N[C@@H]3CC[C@H]3F)cnn12 [Compound I-211]
0.1 to 0.5	CNc1cc(Nc2cccn([C@H]3C[C@H](F)C3)c2=O)nc2c(C(=O)N[C@@H]3CC[C@H]3O)cnn12 [Compound I-108, 5-((1-((1r,3R)-3-Fluorocyclobutyl)-2-oxo-1,2-dihydropyridin-3-yl)amino)-N-((1R,2R)-2-hydroxycyclobutyl)-7-(methylamino)pyrazolo[1,5-a]pyrimidine-3-carboxamide]
0.1 to 0.5	CNc1cc(-c2cn([C@@H]3CC3(F)F)c3ncccc23)nc2c(C(=O)N[C@@H]3COC[C@@H]3O)cnn12 [Compound I-713]
< 0.1	CNc1cc(-c2cn([C@@H]3COC[C@H]3OC)c3ccccc23)nc2c(C(=O)N[C@H]3CC[C@H]3O)cnn12 [Compound I-787]
< 0.1	CNc1cc(-c2cn(C3CCCC3)c3ncccc23)nc2c(C(=O)N[C@H]3CCC3(F)F)cnn12 [Compound I-685]
< 0.1	CNc1cc(Nc2cccn(C3CCOCC3)c2=O)nc2c(C(=O)N[C@H]3CC[C@H]3F)cnn12 [Compound I-192]
< 0.1	CNc1ccc(-c2cc(NC)n3ncc(C(=O)N[C@H]4CC[C@H]4F)c3n2)n2ccnc12 [Compound I-784]
< 0.1	CNc1cc(Nc2cccn([C@H]3CC[C@H]3O)c2=O)nc2c(C(=O)N[C@H]3CCC3(F)F)cnn12 [Compound I-287]
< 0.1	CNc1cc(-c2cn(C3CN(C)C3)c3ncccc23)nc2c(C(=O)NC3CC[C@@H]3F)cnn12 (some centres unmarked) [Compound I-513]

Same assay, conditions: 0.5 h, 1.7 ng/mL IL-12 for 30 minutes

IC50 [µM]	SMILES
< 0.1	CNc1cc(-c2cn([C@H]3[C@@H]4COC[C@@H]43)c3ncccc23)nc2c(C(=O)NC3CC[C@@H]3OC)cnn12 (stereo partly drawn) [Compound I-792, 5-(1-((1R,5S,6r)-3-oxabicyclo[3.1.0]hexan-6-yl)-1H-pyrrolo[2,3-b]pyridin-3-yl)-N-((trans-1,2)-2-methoxycyclobutyl)-7-(methylamino)pyrazolo[1,5-a]pyrimidine-3-carboxamide]
0.1 to 0.5	CNc1cc(-c2cnc3n(CCCN4CCOCC4)cccc2-3)nc2c(C(=O)NC3CC[C@@H]3OC)cnn12 (stereo in doubt) [Compound I-981, N-(2-methoxycyclobutyl)-7-(methylamino)-5-(7-(3-morpholinopropyl)-7H-pyrrolo[2,3-b]pyridin-3-yl)pyrazolo[1,5-a]pyrimidine-3-carboxamide]
